Laboratory results published in US20240317777A1, “NOVEL MACROCYCLIC AMINOPYRAZOLE COMPOUNDS AS CDK2 INHIBITORS” (Accutar Biotechnology Inc., priority 2023, published 2024).
Where two headings read alike, the source gives them in different places. One block for each compound: values may come before it.

Assays:
[1] = other bond
[2] = target: CDK2-CYCLIN E1 (Homo sapiens, UniProt P24941); experiment: CDK protein kinase inhibition by ADP-Glo assay, CDK2-CYCLIN E1; format: biochemical; settings: read-out: CDK2-CYCLINE, IC50
In short: (§1)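 Human CDK/cyclin complexes phosphorylated peptide substrates at 22° C in 100 mM HEPES pH 7.5 with 5 mM MgCl2, 1 mM DTT, 0.1% BSA, 0.01% Triton X-100 and 1000 μM ATP (1% DMSO). ADP formed was detected by ADP-Glo luminescence.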

[3] = target: CDK6-CYCLIN D3 (Homo sapiens, UniProt Q00534); experiment: CDK protein kinase inhibition by ADP-Glo assay, CDK6-CYCLIN D3; format: biochemical; settings: for IC50: read-out: CDK6-CYCLIND3, IC50
Chain of CDK6-CYCLIN D3 (Q00534 whole entry): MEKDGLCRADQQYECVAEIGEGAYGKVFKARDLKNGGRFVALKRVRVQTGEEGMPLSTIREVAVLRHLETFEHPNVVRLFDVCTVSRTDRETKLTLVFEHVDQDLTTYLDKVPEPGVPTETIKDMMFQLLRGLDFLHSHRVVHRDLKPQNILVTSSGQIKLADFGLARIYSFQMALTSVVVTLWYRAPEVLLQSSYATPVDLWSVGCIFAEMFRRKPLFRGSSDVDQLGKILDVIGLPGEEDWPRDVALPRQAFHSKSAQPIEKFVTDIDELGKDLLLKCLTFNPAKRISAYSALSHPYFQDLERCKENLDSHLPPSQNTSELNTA
Chain of CDK6-CYCLIN D3 (P30281 whole entry partner): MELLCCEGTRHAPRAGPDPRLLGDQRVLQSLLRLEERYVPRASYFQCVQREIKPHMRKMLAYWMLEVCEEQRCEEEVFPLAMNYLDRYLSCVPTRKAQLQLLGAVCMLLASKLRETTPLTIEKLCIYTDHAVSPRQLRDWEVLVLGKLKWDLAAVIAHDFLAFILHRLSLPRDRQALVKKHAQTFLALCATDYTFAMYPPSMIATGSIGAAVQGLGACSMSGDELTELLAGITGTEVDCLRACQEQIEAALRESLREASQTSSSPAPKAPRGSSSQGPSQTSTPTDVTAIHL
In short: as §1

[4] = target: CDK4-CYCLIN D1 (Homo sapiens, UniProt P11802); experiment: CDK protein kinase inhibition by ADP-Glo assay, CDK4-CYCLIN D1; format: biochemical; settings: for IC50: read-out: CDK4-CYCLIND1, IC50
Chain of CDK4-CYCLIN D1 (P11802 whole entry): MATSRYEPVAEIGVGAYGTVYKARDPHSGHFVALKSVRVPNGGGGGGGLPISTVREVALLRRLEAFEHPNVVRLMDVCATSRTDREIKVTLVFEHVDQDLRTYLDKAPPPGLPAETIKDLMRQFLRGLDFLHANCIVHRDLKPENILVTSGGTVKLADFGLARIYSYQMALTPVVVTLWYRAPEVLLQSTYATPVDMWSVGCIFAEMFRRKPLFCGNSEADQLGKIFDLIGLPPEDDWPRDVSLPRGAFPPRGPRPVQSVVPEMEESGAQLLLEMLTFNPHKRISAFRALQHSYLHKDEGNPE
Chain of CDK4-CYCLIN D1 (P24385 whole entry partner): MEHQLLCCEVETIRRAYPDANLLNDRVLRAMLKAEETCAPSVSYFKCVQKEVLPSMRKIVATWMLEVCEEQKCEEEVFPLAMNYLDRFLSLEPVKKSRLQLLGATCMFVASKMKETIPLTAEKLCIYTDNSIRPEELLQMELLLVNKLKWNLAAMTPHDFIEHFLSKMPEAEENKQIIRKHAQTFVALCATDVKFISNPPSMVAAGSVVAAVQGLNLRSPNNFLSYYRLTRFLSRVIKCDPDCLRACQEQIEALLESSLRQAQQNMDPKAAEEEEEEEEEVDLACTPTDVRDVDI
In short: as §1

[5] = system: CCNE1-normal SKOV3 cells; experiment: Cell growth inhibition of CCNE1-normal SKOV3 cells (CellTiter-Glo); format: cell-based; settings: Homo sapiens, SK-OV-3, 144 h, 6 days
In short: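 Growth was measured by CellTiter-Glo luminescence after 6 days' compound exposure at 37 °C. Cells were plated one day before dosing at 1000 per well in medium with 10% FBS, and compounds were diluted from DMSO stocks.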

[6] = target: CDK9-CYCLIN T1 (Homo sapiens, UniProt P50750); experiment: CDK protein kinase inhibition by ADP-Glo assay, CDK9-CYCLIN T1; format: biochemical; settings: for IC50: read-out: CDK9-CYCLINT1, IC50
Chain of CDK9-CYCLIN T1 (P50750 whole entry): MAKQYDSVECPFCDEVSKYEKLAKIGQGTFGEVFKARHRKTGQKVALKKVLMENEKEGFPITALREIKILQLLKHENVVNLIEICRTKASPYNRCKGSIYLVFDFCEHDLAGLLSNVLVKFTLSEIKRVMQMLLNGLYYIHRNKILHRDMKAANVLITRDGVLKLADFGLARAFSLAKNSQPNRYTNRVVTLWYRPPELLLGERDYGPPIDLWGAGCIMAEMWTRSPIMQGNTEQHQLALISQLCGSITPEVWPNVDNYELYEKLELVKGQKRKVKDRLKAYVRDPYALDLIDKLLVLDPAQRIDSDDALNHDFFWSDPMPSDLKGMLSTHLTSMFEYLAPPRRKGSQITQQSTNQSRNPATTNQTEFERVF
Chain of CDK9-CYCLIN T1 (O60563 whole entry partner): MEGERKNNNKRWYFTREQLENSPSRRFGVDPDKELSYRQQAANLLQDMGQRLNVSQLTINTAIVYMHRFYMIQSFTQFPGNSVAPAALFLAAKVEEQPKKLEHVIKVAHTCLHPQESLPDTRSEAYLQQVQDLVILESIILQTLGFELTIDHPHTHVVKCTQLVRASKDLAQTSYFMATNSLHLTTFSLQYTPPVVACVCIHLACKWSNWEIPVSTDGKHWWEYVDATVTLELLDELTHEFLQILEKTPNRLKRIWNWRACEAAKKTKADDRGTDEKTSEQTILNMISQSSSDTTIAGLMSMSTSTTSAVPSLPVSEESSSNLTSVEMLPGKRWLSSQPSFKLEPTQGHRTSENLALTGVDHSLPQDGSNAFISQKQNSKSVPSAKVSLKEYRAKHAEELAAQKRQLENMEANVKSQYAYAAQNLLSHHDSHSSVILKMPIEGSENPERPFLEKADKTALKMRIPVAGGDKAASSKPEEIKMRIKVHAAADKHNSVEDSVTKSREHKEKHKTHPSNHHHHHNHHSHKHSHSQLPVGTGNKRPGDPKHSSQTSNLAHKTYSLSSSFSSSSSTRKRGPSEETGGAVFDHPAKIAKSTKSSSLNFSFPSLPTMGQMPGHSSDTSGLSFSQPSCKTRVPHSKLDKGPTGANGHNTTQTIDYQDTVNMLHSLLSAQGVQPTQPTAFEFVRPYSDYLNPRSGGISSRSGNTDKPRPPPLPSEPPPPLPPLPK
In short: as §1

[7] = target: CDK1-CYCLIN B (Homo sapiens, UniProt P06493); experiment: CDK protein kinase inhibition by ADP-Glo assay, CDK1-CYCLIN B; format: biochemical; settings: for IC50: read-out: CDK1-CYCLINB, IC50
Chain of CDK1-CYCLIN B (P06493 whole entry): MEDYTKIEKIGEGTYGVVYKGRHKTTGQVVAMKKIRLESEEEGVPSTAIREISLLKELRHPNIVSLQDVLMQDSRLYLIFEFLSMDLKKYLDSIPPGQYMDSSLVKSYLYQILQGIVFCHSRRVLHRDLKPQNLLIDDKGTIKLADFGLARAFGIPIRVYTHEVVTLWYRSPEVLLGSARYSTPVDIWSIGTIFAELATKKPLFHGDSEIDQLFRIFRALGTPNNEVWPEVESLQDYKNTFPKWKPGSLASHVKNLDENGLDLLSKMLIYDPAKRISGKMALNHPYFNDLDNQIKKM
Chain of CDK1-CYCLIN B (P14635 whole entry partner): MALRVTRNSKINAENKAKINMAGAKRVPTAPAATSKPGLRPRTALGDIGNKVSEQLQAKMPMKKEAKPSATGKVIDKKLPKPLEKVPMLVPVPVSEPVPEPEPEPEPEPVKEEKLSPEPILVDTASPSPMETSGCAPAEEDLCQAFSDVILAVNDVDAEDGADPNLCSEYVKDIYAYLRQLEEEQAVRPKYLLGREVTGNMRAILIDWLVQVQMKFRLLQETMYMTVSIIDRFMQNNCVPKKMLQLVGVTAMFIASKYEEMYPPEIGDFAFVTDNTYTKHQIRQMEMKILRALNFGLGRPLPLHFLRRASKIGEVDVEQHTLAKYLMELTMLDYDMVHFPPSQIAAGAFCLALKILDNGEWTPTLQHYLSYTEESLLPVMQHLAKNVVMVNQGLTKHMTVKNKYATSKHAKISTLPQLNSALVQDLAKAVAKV
In short: as §1

[8] = system: CCNE1-amplified OVCAR3 cells; experiment: Cell growth inhibition of CCNE1-amplified OVCAR3 cells (CellTiter-Glo); format: cell-based; settings: Homo sapiens, OVCAR-3, 144 h, 6 days
In short: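 Growth read-out was CellTiter-Glo luminescence, taken after 10 min at room temperature at the end of a 6-day compound exposure at 37 °C. Compounds were diluted from DMSO stocks across various concentrations.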

[9] = system: Phospho-Rb (Ser807/811) in OVCAR3 cells; experiment: Phospho-Rb expression inhibition in OVCAR3 cells quantified by In Cell Western; format: cell-based; settings: Homo sapiens, OVCAR-3, 24 hours, read-out: OVCAR-3 pRb IC50
In short: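 In-cell western: after 24 h compound exposure at 37° C, fixed OVCAR3 cells co-stained for pRb Ser807/811 (800 nm channel) and total Rb (680 nm channel), imaged by LI-COR Odyssey.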

[10] = Table 35, recombinant CDK kinase

SMILES: C[C@H]1CCCOc2cc(ccn2)Nc2cc(nn2C(C)(C)C)[C@H]2CC[C@H](C2)OC(=O)N1
ring closure, yield of all isomers ([1]; from C[C@H](N)CCCOc1cc(Nc2cc([C@H]3CC[C@@H](OC(=O)Oc4ccc([N+](=O)[O-])cc4)C3)nn2C(C)(C)C)ccn1, DIEA, THF, 3.53 mM, 50.0 °C, 12.0 h): 84.8%

SMILES: C[C@@H]1NC(=O)O[C@@H]2CC[C@@H](C2)c2cc(n(C(C)(C)C)n2)Nc2ccnc(c2)OCCC1F (stereo partly drawn)
ring closure, yield of all isomers ([1]; from C[C@H](N)C(F)CCOc1cc(Nc2cc([C@H]3CC[C@@H](OC(=O)Oc4ccc([N+](=O)[O-])cc4)C3)nn2C(C)(C)C)ccn1, DIEA, DMSO, 1.71 mM, 100.0 °C, 2.0 h): 97%

SMILES: C[C@@H]1NC(=O)O[C@@H]2CC[C@@H](C2)c2cc(n(C(C)(C)C)n2)Nc2ccnc(c2)OCCC1(F)F
ring closure, yield of all isomers ([1]; from C[C@H](N)C(F)(F)CCOc1cc(Nc2cc([C@H]3CC[C@@H](OC(=O)Oc4ccc([N+](=O)[O-])cc4)C3)nn2C(C)(C)C)ccn1, DIEA, DMSO, 1.15 mM, 100.0 °C, 16.0 h): 87.3%

SMILES: C[C@H]1CCCOc2nccc(n2)Nc2cc(nn2C(C)(C)C)[C@H]2CC[C@H](C2)OC(=O)N1
ring closure, yield of all isomers ([1]; from C[C@H](N)CCCOc1nccc(Nc2cc([C@H]3CC[C@@H](OC(=O)Oc4ccc([N+](=O)[O-])cc4)C3)nn2C(C)(C)C)n1, DIEA, DMSO, 1.79 mM, 80.0 °C, 3.0 h): 93%

SMILES: CC1OCCCNC(=O)O[C@@H]2CC[C@@H](C2)c2cc(n(C(C)(C)C)n2)Nc2ccnc1c2 (stereo partly drawn)
ring closure, yield of all isomers ([1]; from CC(OCCCN)c1cc(Nc2cc([C@H]3CC[C@@H](OC(=O)Oc4ccc([N+](=O)[O-])cc4)C3)nn2C(C)(C)C)ccn1, DIEA, THF, 6.34 mM, 100.0 °C, 3.0 h): 87.5%

SMILES: C[C@H]1CCCOc2cc(cc(F)n2)Nc2cc(nn2C(C)(C)C)[C@H]2CC[C@H](C2)OC(=O)N1
ring closure, yield of all isomers ([1]; from C[C@H](N)CCCOc1cc(Nc2cc([C@H]3CC[C@@H](OC(=O)Oc4ccc([N+](=O)[O-])cc4)C3)nn2C(C)(C)C)cc(F)n1, DIEA, THF, 1.71 mM, 25.0 °C, 3.0 h): 97.8%

SMILES: CC1CC23CC(C2)(C3)NC(=O)O[C@@H]2CC[C@@H](C2)c2cc(n(C(C)(C)C)n2)Nc2cc(nc(C(F)F)c2)O1 (stereo partly drawn)
ring closure, yield of all isomers ([1]; from CC(CC12CC(N)(C1)C2)Oc1cc(Nc2cc([C@H]3CC[C@@H](OC(=O)Oc4ccc([N+](=O)[O-])cc4)C3)nn2C(C)(C)C)cc(C(F)F)n1, DIEA, THF, 9.15 mM, 80.0 °C, 2.0 h): 84.7%

SMILES: C[C@@H]1CC/C=C/c2cc(ccn2)Nc2cc(nn2C(C)(C)C)[C@H]2CC[C@H](C2)OC(=O)N1
ring closure, yield of all isomers ([1]; from C[C@@H](N)CC/C=C/c1cc(Nc2cc([C@H]3CC[C@@H](OC(=O)Oc4ccc([N+](=O)[O-])cc4)C3)nn2C(C)(C)C)ccn1, DIEA, THF, 1.46 mM, 70.0 °C, 12.0 h): 98.6%

SMILES: CC(C)(C)n1nc2cc1Nc1ccnc(c1)CCCCCNC(=O)O[C@@H]1CC[C@H]2C1
ring closure, yield of all isomers ([1]; from CC(C)(C)n1nc([C@H]2CC[C@@H](OC(=O)Oc3ccc([N+](=O)[O-])cc3)C2)cc1Nc1ccnc(CCCCCN)c1, DIPEA, THF, 2.0 mM, 30.0 °C, 3.0 h): 85%

SMILES: C[C@H]1CCO[C@H](C)c2cc(ccn2)Nc2cc(nn2C(C)(C)C)[C@H]2CC[C@H](C2)OC(=O)N1
ring closure, yield of all isomers ([1]; from C[C@H](N)CCO[C@H](C)c1cc(Nc2cc([C@H]3CC[C@@H](OC(=O)Oc4ccc([N+](=O)[O-])cc4)C3)nn2C(C)(C)C)ccn1, DIEA, THF, 0.86 mM, 25.0 °C, 12.0 h): 92.1%

SMILES: C[C@@H]1CCCCc2cc(ccn2)Nc2cc(nn2C(C)(C)C)[C@H]2CC[C@H](C2)OC(=O)N1
ring closure, yield of all isomers ([1]; from C[C@@H](N)CCCCc1cc(Nc2cc([C@H]3CC[C@@H](OC(=O)Oc4ccc([N+](=O)[O-])cc4)C3)nn2C(C)(C)C)ccn1, DIPEA, THF, 1.42 mM, 100.0 °C, 3.0 h): 99.5%

SMILES: C[C@H]1CCCOc2cc(c(F)cn2)Nc2cc(nn2C(C)(C)C)[C@H]2CC[C@H](C2)OC(=O)N1
ring closure, yield of all isomers ([1]; from C[C@H](N)CCCOc1cc(Nc2cc([C@H]3CC[C@@H](OC(=O)Oc4ccc([N+](=O)[O-])cc4)C3)nn2C(C)(C)C)c(F)cn1, DIEA, THF, 1.71 mM, 25.0 °C, 3.0 h): 99.9%

SMILES: CC(C)(C)n1nc2cc1Nc1ccnc(c1)C(F)(F)C[C@H]1C[C@@H](C1)NC(=O)O[C@@H]1CC[C@H]2C1
ring closure, yield of all isomers ([1]; from CC(C)(C)n1nc([C@H]2CC[C@@H](OC(=O)Oc3ccc([N+](=O)[O-])cc3)C2)cc1Nc1ccnc(C(F)(F)C[C@H]2C[C@H](N)C2)c1, DIEA, THF, 3.33 mM, 25.0 °C, 12.0 h): 99.9%

SMILES: CC(C)(C)n1nc2cc1Nc1ccnc(c1)OC[C@H]1C[C@@H](C1)NC(=O)O[C@@H]1CC[C@H]2C1
ring closure, yield of all isomers ([1]; from CC(C)(C)n1nc([C@H]2CC[C@@H](OC(=O)Oc3ccc([N+](=O)[O-])cc3)C2)cc1Nc1ccnc(OC[C@H]2C[C@H](N)C2)c1, DIEA, THF, 1.21 mM, 70.0 °C, 12.0 h): 96.7%

SMILES: C[C@H]1CC(F)(F)COc2cc(ccn2)Nc2cc(nn2C(C)(C)C)[C@H]2CC[C@H](C2)OC(=O)N1
ring closure, yield of all isomers ([1]; from C[C@H](N)CC(F)(F)COc1cc(Nc2cc([C@H]3CC[C@@H](OC(=O)Oc4ccc([N+](=O)[O-])cc4)C3)nn2C(C)(C)C)ccn1, DIEA, THF, 1.83 mM, 80.0 °C, 12.0 h): 66.2%

IC50 [2, 10]: ≤ 0.01 µM | IC50 [3, 10]: 0.1 to 0.5 µM | CDK2 Fold selectivity against CDK6 ([3]; Table 36, fold selectivity for CDK2 over CDK6, recombinant CDK kinases): C (C, >50 and ≤100) | IC50 [4, 10]: 0.1 to 0.5 µM | CDK2 Fold selectivity against CDK4 ([4]; Table 36, fold selectivity for CDK2 over CDK4, recombinant CDK kinases): C (C, >50 and ≤100) | IC50 [6, 10]: > 0.5 µM | CDK2 Fold selectivity against CDK9 ([6]; Table 36, fold selectivity for CDK2 over CDK9, recombinant CDK kinases): B (B, >100 and ≤500) | IC50 [7, 10]: 0.01 to 0.05 µM | CDK2 Fold selectivity against CDK1 ([7]; Table 36, fold selectivity for CDK2 over CDK1, recombinant CDK kinases): E (E, <20) | IC50 [8]: 0.01 to 0.05 µM | IC50 [9]: 0.002 to 0.01 µM
SMILES: C[C@H]1CCCOc2cc(ccn2)Nc2cc(n[nH]2)[C@H]2C[C@@H](F)[C@H](C2)OC(=O)N1 [Compound 224, (1^1R,1^3S,1^4R,9S,Z)-1^4-fluoro-9-methyl-2^1H-5,12-dioxa-3,10-diaza-4(4,2)-pyridina-2(3,5)-pyrazola-1(1,3)-cyclopentanacyclododecaphan-11-one]
IC50 [5]: > 1.25 µM

IC50 ([2]; ADP-Glo, 1000 μM ATP, Table 19): ≤ 0.01 µM | IC50 ([3]; ADP-Glo, 1000 μM ATP, Table 19): 0.01 to 0.05 µM | CDK2 Fold selectivity, CDK6 ([3]; CDK2 versus CDK6, Table 20): D (D, >20 and ≤50) | IC50 ([4]; ADP-Glo, 1000 μM ATP, Table 19): 0.01 to 0.05 µM | CDK2 Fold selectivity, CDK4 ([4]; CDK2 versus CDK4, Table 20): D (D, >20 and ≤50) | IC50 ([6]; ADP-Glo, 1000 μM ATP, Table 19): 0.01 to 0.05 µM | CDK2 Fold selectivity, CDK9 ([6]; CDK2 versus CDK9, Table 20): E (E, <20) | IC50 ([7]; ADP-Glo, 1000 μM ATP, Table 19): ≤ 0.01 µM | CDK2 Fold selectivity, CDK1 ([7]; CDK2 versus CDK1, Table 20): E (E, <20) | IC50 [8]: 0.002 to 0.01 µM | IC50 [9]: ≤ 0.002 µM
SMILES: O=C1NCCCCC(F)(F)c2cc(ccn2)Nc2cc([nH]n2)[C@H]2CC[C@H](C2)O1 [Compound 64, (1^1S,1^3R,Z)-5,5-difluoro-2^1H-12-oxa-3,10-diaza-4(4,2)-pyridina-2(3,5)-pyrazola-1(1,3)-cyclopentanacyclododecaphan-11-one]
IC50 [5]: 0.05 to 0.25 µM

IC50 ([2]; ADP-Glo, 1000 μM ATP, Table 7): ≤ 0.01 µM | IC50 ([3]; ADP-Glo, 1000 μM ATP, Table 7): 0.1 to 0.5 µM | CDK2 Fold Sensitivity, CDK6 ([3]; CDK2 versus CDK6, Table 8): C (C, >50 and ≤100) | IC50 ([4]; ADP-Glo, 1000 μM ATP, Table 7): 0.1 to 0.5 µM | CDK2 Fold Sensitivity, CDK4 ([4]; CDK2 versus CDK4, Table 8): D (D, >20 and ≤50) | IC50 ([6]; ADP-Glo, 1000 μM ATP, Table 7): > 0.5 µM | CDK2 Fold Sensitivity, CDK9 ([6]; CDK2 versus CDK9, Table 8): B (B, >100 and ≤500) | IC50 ([7]; ADP-Glo, 1000 μM ATP, Table 7): 0.1 to 0.5 µM | CDK2 fold selectivity over CDK1 ([7]; CDK2 versus CDK1, Table 8): C (C, >50 and ≤100) | IC50 [8]: 0.05 to 0.25 µM | IC50 [9]: 0.01 to 0.05 µM
SMILES: O=C1NCCCCOc2cccc(c2)Nc2cc([nH]n2)[C@H]2CC[C@H](C2)O1 [Compound 105, (1^1S,1^3R,Z)-2^1H-5,12-dioxa-3,10-diaza-2(5,3)-pyrazola-4(1,3)-benzena-1(1,3)-cyclopentanacyclododecaphan-11-one]
IC50 [5]: > 1.25 µM
